Molecules are shown by their SMILES.

The data set can be described thus: Partition coefficient (logP). The data set is classed as physicochemical. The settings on record: octanol/water.
Take `CCCC(=O)O[C@@H]1[C@@H](C)[C@@]2(O)[C@@H](C=C(CO)C[C@]3(O)C(=O)C(C)=C[C@@H]23)[C@@H]2C(C)(C)[C@]12OC(=O)CCC`: the log partition coefficient (logP) was found to be 3.4. To `CC(C)C(CC(=O)OC[C@H](CO)OC(=O)CC(C(C)C)C(C)C)C(C)C` belongs 5.79; to `CC(C)CC(=O)OC[C@H](CO)OC(=O)CC(C)C`, 2.16.

In turn, `CC(C)CC(=O)OC[C@H](CO)OC(=O)CC(C(C)C)C(C)C` displayed a logP of 3.97. To `CC(C)=CC(=O)OC[C@H](CO)OC(=O)CC(C)C` belongs 2.07.

In the case of `CC(C)CC(=O)O[C@@H](CO)COC(=O)CC(C(C)C)C(C)C`, the logP was found to be 3.97. To `CC(C)C(=CC(=O)OC[C@H](CO)OC(=O)CC(C(C)C)C(C)C)C(C)C` belongs 5.71; to `CC(C)C(=CC(=O)OC[C@H](CO)OC(=O)C=C(C(C)C)C(C)C)C(C)C`, 5.62. As to `CC(C)C(=CC(=O)O[C@@H](CO)COC(=O)CC(C(C)C)C(C)C)C(C)C`, the logP came out at 5.71. To `CC(C)=CC(=O)O[C@@H](CO)COC(=O)CC(C(C)C)C(C)C` belongs 3.88. Then `CC(C)CC(=O)OC[C@H](CO)OC(=O)C=C(C(C)C)C(C)C`, with 3.89; and `CCCCCCCC(=O)OC[C@H](CO)OC(=O)CCCCCCC`, with 5.3. To `CC(C)CC(=O)O[C@@H](CO)COC(=O)C=C(C(C)C)C(C)C` belongs 3.89.

In turn, `CC(C)=CC(=O)O[C@@H](CO)COC(=O)C=C(C(C)C)C(C)C` came in with a logP of 3.8. Turning to `CC(C)=CC(=O)OC[C@H](CO)OC(=O)C=C(C)C`, the logP turned out to be 1.99. Take `CC(C)=CC(=O)O[C@@H](CO)COC(=O)CC(C)C`: the logP worked out at 2.07.

For `CC(C)=CC(=O)OC[C@H](CO)OC(=O)CC(C(C)C)C(C)C`, the logP is 3.88. As to `CC(C)=CC(=O)OC[C@H](CO)OC(=O)C=C(C(C)C)C(C)C`, the logP is 3.8. Compound `CCCCCCCC/C=C/CCCCCCCC(=O)OC[C@H](CO)OC(C)=O` came in with a logP of 7. To `CC(=O)O[C@@]12C[C@@H](C)[C@@]3(O)[C@@H](C=C(CO)C[C@]4(O)C(=O)C(C)=C[C@@H]34)[C@@H]1C2(C)C` [PROSTRATIN] belongs 1.9.

Usually logP stands for the decadic logarithm of the partition coefficient of the neutral form, usually between octanol and water.

Values taken from ChEMBL document CHEMBL1134496, “An optimized protein kinase C activating diacylglycerol combining high binding affinity (Ki) with reduced lipophilicity (log P)” (J Med Chem, 2001).
